Assays:
[1] = Cell viability assay (MTT) on normal mammary epithelial cells; format: cell-based, human; settings: human, MCF-10A normal mammary gland epithelial cells, MCF-10A normal cells, 4 days incubation
Procedure: This test investigates the effects of the new compounds 3–16 on normal cell lines to determine their safety. The normal human mammary gland epithelial (MCF-10 A) cell line was used to test the viability of the tested compounds. After 4 days of incubation on MCF-10 A cells within 50 µM of each investigated compound, cell viability was determined using the MTT assay ([Gomaa et al., 2020]; [Marzouk et al., 2020]).
The normal human mammary gland epithelial (MCF-10A) cell line was used to test the viability of the tested compounds. After 4 days of incubation on MCF-10A cells within 50 µM of each investigated compound, cell viability was determined using the MTT assay ([Gomaa et al., 2020]; [Marzouk et al., 2020]). Refer to Supplementary Appendix SA1 (supp. File) for more details.
4.2. Biological evaluation
4.2.1 Cell Viability assay (MTT assay)
MTT assay was performed to investigate the effect of the synthesized compounds on mammary epithelial cells (MCF-10A). The cells were propagated in medium consisting of Ham's F-12 medium/ Dulbecco's modified Eagle's medium (DMEM) (1:1) supplemented with 10% foetal calf serum, 2 mM glutamine, insulin (10 μg/mL), hydrocortisone (500 ng/mL) and epidermal growth factor (20 ng/mL). Trypsin ethylenediamine tetra acetic acid (EDTA) was used to passage the cells after every 2-3 days. 96-well flat-bottomed cell culture plates were used to seed the cells at a density of 10^4 cells mL-1. The medium was aspirated from all the wells of culture plates after 24 h followed by the addition of synthesized compounds (in 200 μL medium to yield a final concentration of 0.1% (v/v) dimethyl sulfoxide) into individual wells of the plates. Four wells were designated to a single compound. The plates were allowed to incubate at 37°C for 96 h. Afterwards, the medium was aspirated and 3-[4,5-dimethylthiazol-2-yl]-2,5-diphenyltetrazolium bromide (MTT) (0.4 mg/mL) in medium was added to each well and subsequently incubated for 3 h. The medium was aspirated and 150 μL dimethyl sulfoxide (DMSO) was added to each well. The plates were vortexed followed by the measurement of absorbance at 540 nm on a microplate reader. The results were presented as inhibition (%) of proliferation in contrast to controls comprising 0.1%

[2] = test system: A-549 cells; experiment: Antiproliferative assay, A-549; format: cell-based; settings: Homo sapiens, A549; A-549 lung cancer cell line; read-out: Antiproliferative activity IC50 ± SEM, A-549
Procedure: (§1) 4.2.2. Assay for antiproliferative effect
(§2) To explore the antiproliferative potential of compounds propidium iodide fluorescence assay was performed using different cell lines such as Panc-1 (pancreas cancer cell line), MCF-7 (breast cancer cell line), HT-29 (colon cancer cell line) and A-549 (epithelial cancer cell line), respectively. To calculate the total nuclear DNA, a fluorescent dye (propidium iodide, PI) is used which can attach to the DNA, thus offering a quick and precise technique. PI cannot pass through the cell membrane and its signal intensity can be considered as directly proportional to quantity of cellular DNA. Cells whose cell membranes are damaged or have changed permeability are counted as dead ones. The assay was performed by seeding the cells of different cell lines at a density of 3000-7500 cells/well (in200μl medium) in culture plates followed by incubation for 24h at 37 °C in humidified 5%CO2/95% air atmospheric conditions. The medium was removed; the compounds were added to the plates at 10 μM concentrations (in 0.1% DMSO) in triplicates, followed by incubation for 48h. DMSO (0.1%) was used as control. After incubation, medium was removed followed by the addition of PI (25 μl, 50μg/mL in water/medium) to each well of the plates. At - 80 °C, the plates were allowed to freeze for 24 h, followed by thawing at 25 °C. A fluorometer (Polar-Star BMG Tech) was used to record the readings at excitation and emission wavelengths of 530 and 620 nm for each well. The percentage cytotoxicity of compounds was calculated using […]
(§3) Where ATC= Absorbance of treated cells and AC= Absorbance of control. Erlotinib was used as positive control in the assay.

[3] = test system: MCF-7 cells; experiment: Antiproliferative assay, MCF-7; format: cell-based; settings: Homo sapiens, MCF7; MCF-7 breast cancer cell line; read-out: Antiproliferative activity IC50 ± SEM, MCF-7
Procedure: as §1, §2, §3

[4] = test system: Panc-1 cells; experiment: Antiproliferative assay, Panc-1; format: cell-based; settings: Homo sapiens; Panc-1 pancreatic cancer cell line; read-out: Antiproliferative activity IC50 ± SEM, Panc-1
Procedure: as §1, §2, §3

[5] = test system: HT-29 cells; experiment: Antiproliferative assay, HT-29; format: cell-based; settings: Homo sapiens; HT-29 colon cancer cell line; read-out: Antiproliferative activity IC50 ± SEM, HT-29
Procedure: as §1, §2, §3

[6] = test system: four human cancer cell lines (A-549, MCF-7, Panc-1, HT-29); experiment: Antiproliferative assay, average over four cancer cell lines (GI50); format: cell-based; settings: for IC50: Homo sapiens, average of IC50 against A-549, MCF-7, Panc-1, HT-29
Procedure: See Supplementary Appendix SA1 for more details.
as §1
To explore the antiproliferative potential of compounds propidium iodide fluorescence assay was performed using different cell lines such as Panc-1 (pancreas cancer cell line), MCF-7 (breast […]
respectively. To calculate the total nuclear DNA, a fluorescent dye (propidium iodide, PI) is used which can attach to the DNA, thus offering a quick and precise technique. PI cannot pass through the cell membrane and its signal intensity can be considered as directly proportional to quantity of cellular DNA. Cells whose cell membranes are damaged or have changed permeability are counted as dead ones. The assay was performed by seeding the cells of different cell lines at a density of […]
The medium was removed; the compounds were added to the plates at 10 μM concentrations (in 0.1% DMSO) in triplicates, followed by incubation for 48h. DMSO (0.1%) was used as control. After incubation, medium was removed followed by the addition of PI (25 μl, 50μg/mL in water/medium) to each well of the plates. At - 80 °C, the plates were allowed to freeze for 24 h, followed by thawing at 25 °C. A fluorometer (Polar-Star BMG Tech) was used to record the readings at excitation and emission wavelengths of 530 and 620 nm for each well. The percentage cytotoxicity of compounds was calculated using […]
Where ATC= Absorbance of treated cells and AC= Absorbance of control. […]
positive control in the assay.

[7] = target: T1, aromatase (CYP19) (Homo sapiens, UniProt P11511); experiment: Aromatase inhibitory assay (Gentest kit, DBF fluorometric substrate)
T1 sequence (P11511 1-503): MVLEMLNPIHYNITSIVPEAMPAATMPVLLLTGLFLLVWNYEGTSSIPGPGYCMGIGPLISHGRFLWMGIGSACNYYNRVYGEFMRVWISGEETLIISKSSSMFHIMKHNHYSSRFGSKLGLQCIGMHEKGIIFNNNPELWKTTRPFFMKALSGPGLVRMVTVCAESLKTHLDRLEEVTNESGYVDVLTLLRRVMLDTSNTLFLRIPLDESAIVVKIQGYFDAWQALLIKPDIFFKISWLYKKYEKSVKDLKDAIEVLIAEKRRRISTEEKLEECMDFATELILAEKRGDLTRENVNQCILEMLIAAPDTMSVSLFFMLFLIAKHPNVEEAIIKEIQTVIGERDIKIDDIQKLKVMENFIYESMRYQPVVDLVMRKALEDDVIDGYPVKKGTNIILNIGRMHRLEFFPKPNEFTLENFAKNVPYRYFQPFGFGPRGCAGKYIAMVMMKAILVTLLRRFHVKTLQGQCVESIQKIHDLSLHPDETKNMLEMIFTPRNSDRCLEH
Procedure: The aromatase inhibitory effect was performed using the method reported by Stressor et al.[35].
This method was carried out according to the Gentest kit using CYP19 enzyme and DBF as a
fluorometric substrate. DBF was dealkylated by aromatase and then hydrolyzed to give the
fluorescein product. Briefly, 100 μL of cofactor, containing 78.4 μL of 50 mM phosphate buffer
(pH 7.4); 20 μL of 20x NADPH-generating system (26 mM NADP+, 66 mM glucose-6-phosphate,
and 66 mM MgCl2); and 1.6 μL of 100 U/mL glucose-6-phosphate dehydrogenase, was pipetted
into a 96-well plate and preincubated in 37 °C (water bath) for 10 min. The reaction was initiated
by addition of 100 μL of enzyme/substrate mixture containing 77.3 μL of 50 mM
phosphate buffer (pH 7.4); 12.5 μL of 16 pmol/mL CYP19; 0.2 μL of 0.2 mM DBF, and 10 μL of
0.25 mM diluted tested sample or 10% DMSO as a negative control or letrozole as a positive
control. Fluorescence signal was recorded using an excitation wavelength of 490 nm and emission
Percentage of inhibition (%inhibition) was calculated
as shown in Equation (1).
assayed in triplicate. Finally, IC50 values were determined by plot of concentrations versus %

`CCc1c(C(=O)NC(C(=O)OCc2ccccc2)C(C)O)[nH]c2ccc(Cl)cc12` (stereo not shown) [Compound 3, Benzyl 2-(5-chloro-3-ethyl-1H-indol-2-carboxamido)-3-hydroxybutanoate] showed a viability at 4 days, 50 µM [1] of 91%, an IC50 [2] of 57 ± 5 nM and an IC50 [3] of 62 ± 5 nM. The IC50 [4] was 58 ± 5 nM, the IC50 [5] was 60 ± 5 nM and the IC50 [6] was 59 nM.
`CCc1c(C(=O)NC(C(C)=O)C(=O)OCc2ccccc2)[nH]c2ccc(Cl)cc12` (stereo not shown) [Compound 4, benzyl 2-(5-chloro-3-ethyl-1h-indol-2-carboxamido)-3-oxobutanoate] showed a viability at 4 days, 50 µM [1] of 89%, an IC50 [2] of 59 ± 5 nM and an IC50 [3] of 65 ± 6 nM. The IC50 [4] was 60 ± 5 nM, the IC50 [5] was 64 ± 6 nM and the IC50 [6] was 62 nM.
`CCc1c2cc(Cl)ccc2n2c(C)c(C(=O)O)[nH]c(=O)c12` [Compound 6, 8-chloro-10-ethyl-4-methyl-1-oxo-1,2-dihydropyrazino [1,2-a]indole-3-carboxylic acid] gave a viability at 4 days, 50 µM [1] of 92%, an IC50 [2] of 65 ± 6 nM and an IC50 [3] of 68 ± 6 nM. The IC50 [4] was 64 ± 6 nM, the IC50 [5] was 66 ± 6 nM and the IC50 [6] was 66 nM. It also gave a melting point of 270 to 272 °C.
Work on `CCOC(=O)C(Cc1ccccc1)NC(=O)c1[nH]c2ccc(Cl)cc2c1CC` (stereo not shown) [Compound 8, ethyl 2-(5-chloro-3-ethyl-1h-indole-2-carboxamido)-3-phenylpropanoate] yielded a viability at 4 days, 50 µM [1] of 92%, an IC50 [2] of 37 ± 3 nM and an IC50 [3] of 40 ± 3 nM. It also gave an IC50 [4] of 37 ± 3 nM, an IC50 [5] of 38 ± 3 nM and an IC50 [6] of 38 nM. It also gave an IC50 [7] of 33 ± 3 nM.
Work on `CCc1c2n(c3ccc(Cl)cc13)C(=O)C(Cc1ccccc1)NC2=O` (stereo not shown) [Compound 9, 3-benzyl-8-chloro-10-ethyl-2,3-dihydropyrazino [1,2-a] indole-1,4-dione] yielded a viability at 4 days, 50 µM [1] of 91%, an IC50 [2] of 48 ± 4 nM and an IC50 [3] of 50 ± 4 nM. The IC50 [4] was 47 ± 4 nM, the IC50 [5] was 50 ± 5 nM and the IC50 [6] was 49 nM. For the same compound, the melting point was 196 to 198 °C.
With `CCc1c2n(c3ccc(Cl)cc13)C(O)C(Cc1ccccc1)NC2=O` (stereo not shown) [Compound 10, 3-benzyl-8-chloro-10-ethyl-4-hydroxy-3,4-dihydropyrazino [1,2-a] indol-1(2H)-one] the viability at 4 days, 50 µM [1] was 89%, the IC50 [2] was 53 ± 5 nM and the IC50 [3] was 56 ± 5 nM. It also gave an IC50 [4] of 54 ± 5 nM, an IC50 [5] of 54 ± 5 nM and an IC50 [6] of 54 nM. The melting point was 160 to 162 °C.
`CCc1c2cc(Cl)ccc2n2cc(Cc3ccccc3)[nH]c(=O)c12` [Compound 11, 3-Benzyl-8-chloro-10-ethylpyrazino[1,2-a]indol-1(2H)-one] gave a viability at 4 days, 50 µM [1] of 92%, an IC50 [2] of 40 ± 4 nM and an IC50 [3] of 43 ± 4 nM. The IC50 [4] was 40 ± 4 nM, the IC50 [5] was 42 ± 4 nM and the “Fold less potent than compound 12 (GI50)” value [6] was 1.7 fold. For the same compound, the IC50 [6] was 41 nM.
`CCc1c(C(=O)NC(C(=O)OC)c2ccccc2)[nH]c2ccc(Cl)cc12` (stereo not shown) [Compound 13, Methyl 2-(5-chloro-3-ethyl-1h-indole-2-carboxamido)-2-phenylacetate] showed a viability at 4 days, 50 µM [1] of 91%, an IC50 [2] of 34 ± 3 nM and an IC50 [3] of 36 ± 3 nM. It also gave an IC50 [4] of 35 ± 3 nM, an IC50 [5] of 34 ± 3 nM and an IC50 [6] of 35 nM. For the same compound, the melting point was 210 to 212 °C and the IC50 [7] was 28 ± 2 nM.
Compound `CCc1c2n(c3ccc(Cl)cc13)C(=O)C(c1ccccc1)NC2=O` (stereo not shown) [Compound 14, 8-Chloro-10-ethyl-3-phenyl-2,3-dihydropyrazino [1,2-a] indole-1,4-dione] has a viability at 4 days, 50 µM [1] of 90%, an IC50 [2] of 44 ± 4 nM and an IC50 [3] of 46 ± 4 nM. The IC50 [4] was 44 ± 4 nM, the IC50 [5] was 46 ± 4 nM and the IC50 [6] was 45 nM. The melting point was 202 to 204 °C.
With `CCc1c2n(c3ccc(Cl)cc13)C(O)C(c1ccccc1)NC2=O` (stereo not shown) [Compound 15, 8-Chloro-10-ethyl-4-hydroxy-3-phenyl-3,4-dihydropyrazino [1,2-a] indol-1(2H)-one] the viability at 4 days, 50 µM [1] was 92%, the IC50 [2] was 69 ± 6 nM and the IC50 [3] was 76 ± 7 nM. It also gave an IC50 [4] of 72 ± 7 nM, an IC50 [5] of 74 ± 7 nM and an IC50 [6] of 72 nM. The melting point was 213 to 215 °C.
Compound `C#Cc1cccc(Nc2ncnc3cc(OCCOC)c(OCCOC)cc23)c1` [Erlotinib, reference compound] has an IC50 [2] of 30 ± 3 nM, an IC50 [3] of 40 ± 3 nM and an IC50 [4] of 30 ± 3 nM. It also gave an IC50 [5] of 30 ± 3 nM.
